One may read the IC50 as the concentration at which inhibition is half-maximal. As usually defined, the EC50 is the concentration needed to bring the measured effect to its halfway point.

Like-named read-outs stand apart in the source and are kept apart here. Where only a bound is given, the exact number is not on record here.

Assay type in all cases: cell-based
Experiment [1] deals with LS411N cells. As to the kind of experiment: DHX9 cellular proliferation assay (CellTiter-Glo), LS411N (CRC-MSI). Particulars: Homo sapiens, LS-411N, LS411N, performed at Pharmaron, read-out: LS411N (CRC-MSI-H) Antiproliferative IC50.
The subject of experiment [2] is circBRIP1 in HCT116 cells. As to the kind of experiment: DHX9 circBRIP1 cellular target engagement SYBR Green assay (qPCR). The conditions noted are these: Homo sapiens, HCT-116, circBRIP1, HCT116 cells, read-out: DHX9 Cellular Target Engagement EC50. Background: Quantitative PCR measures a nucleic acid by following its amplification.
For experiment [3], the system named is NCI-H747 cells. As to the kind of experiment: DHX9 cellular proliferation assay (CellTiter-Glo), NCI-H747 (CRC-MSS). Particulars: Homo sapiens, performed at Pharmaron, read-out: H747 (CRC-MSS) Antiproliferative IC50. In general terms: In ATP-based viability assays light output follows the ATP content of the culture.

In the case of `CS(=O)(=O)Nc1cc(Cl)cc(NC(=O)c2cc(-c3ccccn3)c(CO)s2)c1` [Example 163, N-(3-chloro-5-(methylsulfonamido)phenyl)-5-(hydroxymethyl)-4-(pyridin-2-yl)thiophene-2-carboxamide], the IC50 in experiment [1] (CRC-MSI-H) was 0.609 µM; in experiment [3] (NCI-H747, NCI-H747, CRC-MSS) it was over 10 µM. In addition, the EC50 in experiment [2] (SyBr assay (marked ^+)) turned out to be 0.07 µM.

As to `COc1cnc(-c2cc(C(=O)Nc3cc(Cl)cc(NS(C)(=O)=O)c3)sc2C)nc1` [Example 341], the IC50 in experiment [1] (CRC-MSI-H) is 0.122 µM; in experiment [3] (NCI-H747, NCI-H747, CRC-MSS) it was over 10 µM. The EC50 in experiment [2] (SyBr assay (marked ^+)) was found to be 0.0346 µM.

Take `CS(=O)(=O)Nc1cc(Cl)cc(NC(=O)c2cnn(-c3ncc(F)cc3CCc3cccc(F)c3)c2)c1` [Example 251]: the IC50 is 0.432 µM in experiment [1] (CRC-MSI-H) and over 10 µM in experiment [3] (NCI-H747, NCI-H747, CRC-MSS). In addition, the EC50 in experiment [2] (SyBr assay (marked ^+)) was over 10 µM.

With `CN(C)C(=O)c1sc(C(=O)Nc2cc(Cl)cc(NS(C)(=O)=O)c2)cc1-c1ncccc1OCc1ccccc1` [Example 213], the IC50 in experiment [1] (CRC-MSI-H) is 0.173 µM; in experiment [3] (NCI-H747, NCI-H747, CRC-MSS) it was over 10 µM. The EC50 in experiment [2] (SyBr assay (marked ^+)) is 0.0746 µM.

`Cc1ccc(OCc2cccc(F)c2)c(-n2cc(C(=O)Nc3cc(Cl)cc(NS(C)(=O)=O)c3)cn2)n1` [Example 204]: the IC50 in experiment [1] (CRC-MSI-H) is 0.0548 µM; in experiment [3] (NCI-H747, NCI-H747, CRC-MSS), over 10 µM. In addition, the EC50 in experiment [2] (SyBr assay (marked ^+)) was 0.0539 µM.

Turning to `CS(=O)(=O)Nc1cc(Cl)cc(NC(=O)c2cnn(-c3ccccn3)c2)c1` [Example 37], the IC50 was 3.47 µM in experiment [1] (CRC-MSI-H) and over 10 µM in experiment [3] (NCI-H747, NCI-H747, CRC-MSS). Moreover, the EC50 in experiment [2] (SyBr assay (marked ^+)) worked out at 0.83 µM.

On to `CCS(=O)(=O)Nc1cc(Cl)cc(NC(=O)c2cc(-c3ccccn3)c(C)s2)c1` [Example 28], for which the IC50 in experiment [1] (CRC-MSI-H) is 0.0788 µM; in experiment [3] (NCI-H747, NCI-H747, CRC-MSS), over 10 µM. Besides, in experiment [2] (SyBr assay (marked ^+)), the EC50 was determined as 0.0258 µM.

Regarding `Cn1cc(C(=O)Nc2cc(Cl)cc(NS(C)(=O)=O)c2)cc1-c1ncc(F)cn1` [Example 171, N-(3-chloro-5-(methylsulfonamido)phenyl)-5-(5-fluoropyrimidin-2-yl)-1-methyl-1H-pyrrole-3-carboxamide], the IC50 in experiment [1] (CRC-MSI-H) was 0.372 µM; in experiment [3] (NCI-H747, NCI-H747, CRC-MSS) it was over 10 µM. Besides, in experiment [2] (SyBr assay (marked ^+)), the EC50 turned out to be 0.0957 µM.

For the compound `CS(=O)(=O)Nc1cc(Cl)cc(NC(=O)c2cc(-c3ccccn3)c(C3CC3)s2)c1` [Example 177, N-(3-chloro-5-(methylsulfonamido)phenyl)-5-cyclopropyl-4-(pyridin-2-yl)thiophene-2-carboxamide], the IC50 was 0.251 µM in experiment [1] (CRC-MSI-H) and over 10 µM in experiment [3] (NCI-H747, NCI-H747, CRC-MSS). Further, in experiment [2] (SyBr assay (marked ^+)), the EC50 was found to be 0.0848 µM.

`CS(=O)(=O)Nc1cc(Cl)cc(NC(=O)c2cnn(-c3ccc(N4CC5(COC5)C4)cc3OCc3cccc(F)c3)c2)c1` [Example 722]: the IC50 in experiment [1] is 0.0506 µM; in experiment [3] (NCI-H747, NCI-H747), over 10 µM. Besides, in experiment [2] (^+ SyBr assay was used), the EC50 stood at 0.0511 µM.

Turning to `Cc1cc(C(=O)Nc2cc(Cl)cc(NS(C)(=O)=O)c2)cn1-c1ncccn1` [Example 59], the IC50 in experiment [1] (CRC-MSI-H) was 0.357 µM; in experiment [3] (NCI-H747, NCI-H747, CRC-MSS) it was over 10 µM. Also, in experiment [2] (SyBr assay (marked ^+)), the EC50 was 0.104 µM.

For `Cc1sc(C(=O)Nc2cc(Cl)cc(NS(C)(=O)=O)c2)cc1-c1ncccc1OCc1ccccc1` [Example 34], the IC50 in experiment [1] (CRC-MSI-H) was 0.0141 µM; in experiment [3] (NCI-H747, NCI-H747, CRC-MSS), 8.67 µM. In addition, in experiment [2] (SyBr assay (marked ^+)), the EC50 was 0.013 µM.

For `Cc1cc(C(=O)Nc2cc(Cl)cc(NS(C)(=O)=O)c2)cn1-c1ccc(N2CCN(C(=O)C(C)C)CC2)cn1` [Example 283], the IC50 is 0.0923 µM in experiment [1] (CRC-MSI-H) and over 10 µM in experiment [3] (NCI-H747, NCI-H747, CRC-MSS). The EC50 in experiment [2] (SyBr assay (marked ^+)) turned out to be 0.131 µM.

`COc1cc(F)cnc1-c1cc(C(=O)Nc2cc(Cl)cc(NS(C)(=O)=O)c2)cn1C` [Example 568, N-(3-chloro-5-methanesulfonamidophenyl)-5-(5-fluoro-3-methoxypyridin-2-yl)-1-methylpyrrole-3-carboxamide]: the IC50 in experiment [1] is 0.349 µM; in experiment [3] (NCI-H747, NCI-H747), over 10 µM. Further, the EC50 in experiment [2] (^+ SyBr assay was used) is 0.0575 µM.

`Cn1cc(C(=O)Nc2cc(Cl)cc(NS(C)(=O)=O)c2)cc1-c1ncc(N2CCC2)cn1` [Example 521]: the IC50 is 0.069 µM in experiment [1] and over 10 µM in experiment [3] (NCI-H747, NCI-H747). Moreover, the EC50 in experiment [2] (^+ SyBr assay was used) was 0.0351 µM.

Turning to `Cc1cc(C(=O)Nc2cc(Cl)cc(NS(C)(=O)=O)c2)cn1-c1ccc(N2CCN(C(=O)N(C)C)CC2)cn1` [Example 284], the IC50 in experiment [1] (CRC-MSI-H) is 0.161 µM; in experiment [3] (NCI-H747, NCI-H747, CRC-MSS), over 10 µM. In experiment [2] (SyBr assay (marked ^+)), the EC50 came out at 0.103 µM.

With `CS(=O)(=O)Nc1cc(Cl)cc(NC(=O)c2cc(-c3ncccc3OCc3cccnc3)n(CC(F)(F)F)c2)c1` [Example 185], the IC50 came out at 0.139 µM in experiment [1] (CRC-MSI-H) and 8.38 µM in experiment [3] (NCI-H747, NCI-H747, CRC-MSS). Besides, in experiment [2] (SyBr assay (marked ^+)), the EC50 stood at 0.0733 µM.

In the case of `CS(=O)(=O)Nc1cc(Cl)cc(NC(=O)c2cnn(-c3ncc(F)cc3OCc3cccc(F)c3)c2)c1` [Example 202], the IC50 in experiment [1] (CRC-MSI-H) is 0.111 µM; in experiment [3] (NCI-H747, NCI-H747, CRC-MSS), 8.56 µM. In addition, the EC50 in experiment [2] (SyBr assay (marked ^+)) stood at 0.103 µM.

In the case of `CS(=O)(=O)Nc1cc(Cl)cc(NC(=O)c2cc(-c3ncccc3OCc3ccccc3)c(CO)s2)c1` [Example 216], the IC50 is 0.0385 µM in experiment [1] (CRC-MSI-H) and over 10 µM in experiment [3] (NCI-H747, NCI-H747, CRC-MSS). In addition, the EC50 in experiment [2] (SyBr assay (marked ^+)) worked out at 0.0127 µM.

Turning to `CS(=O)(=O)Nc1cc(Br)cc(NC(=O)c2cnn(-c3cc(C#N)ccc3OCc3ccccc3)c2)c1` [Example 67], the 50% inhibitory concentration (IC50) in experiment [1] (CRC-MSI-H) was 1.05 µM; in experiment [3] (NCI-H747, NCI-H747, CRC-MSS) it was over 10 µM. The EC50 in experiment [2] (SyBr assay (marked ^+)) turned out to be 0.297 µM.

As to `Cc1sc(C(=O)Nc2cc(Cl)cc(NS(C)(=O)=O)c2)cc1-c1ncc(OC(F)F)cn1` [Example 345], the IC50 was determined as 0.362 µM in experiment [1] (CRC-MSI-H) and 8.45 µM in experiment [3] (NCI-H747, NCI-H747, CRC-MSS). Also, the EC50 in experiment [2] (SyBr assay (marked ^+)) stood at 0.108 µM.

`Cn1cc(C(=O)Nc2cc(Cl)cc(NS(C)(=O)=O)c2)cc1-c1ncc(N2CCCC2)cn1` [Example 520]: the IC50 in experiment [1] was 0.118 µM; in experiment [3] (NCI-H747, NCI-H747), over 10 µM. For the same compound, the concentration for a half-maximal effect (EC50) in experiment [2] (^+ SyBr assay was used) amounted to 0.0402 µM.

Consider `CCOc1cnc(-c2cc(C(=O)Nc3cc(Cl)cc(NS(C)(=O)=O)c3)sc2C)nc1` [Example 335], for which the IC50 was 0.0526 µM in experiment [1] (CRC-MSI-H) and over 10 µM in experiment [3] (NCI-H747, NCI-H747, CRC-MSS). For the same compound, the EC50 in experiment [2] (SyBr assay (marked ^+)) was determined as 0.0511 µM.

Regarding `CS(=O)(=O)Nc1cc(Cl)cc(NC(=O)c2cnn(-c3ncccc3OCc3cccc(F)c3)c2)c1` [Example 65], the concentration for half-maximal inhibition (IC50) in experiment [1] (CRC-MSI-H) is 0.109 µM; in experiment [3] (NCI-H747, NCI-H747, CRC-MSS), over 10 µM. Further, in experiment [2] (SyBr assay (marked ^+)), the EC50 was 0.0631 µM.

Turning to `Cc1cc(C(=O)Nc2cc(Cl)cc(NS(C)(=O)=O)c2)cn1-c1ccc(Cl)cn1` [Example 389], the IC50 in experiment [1] (CRC-MSI-H) was determined as 0.113 µM; in experiment [3] (NCI-H747, NCI-H747, CRC-MSS), 8.04 µM. For the same compound, the EC50 in experiment [2] (SyBr assay (marked ^+)) came out at 0.11 µM.

For the compound `Cc1sc(C(=O)Nc2cc(Cl)cc(NS(C)(=O)=O)c2)cc1-c1ncccc1O` [Example 227], the IC50 is 0.879 µM in experiment [1] (CRC-MSI-H) and over 10 µM in experiment [3] (NCI-H747, NCI-H747, CRC-MSS). Also, the EC50 in experiment [2] (SyBr assay (marked ^+)) was found to be 0.0403 µM.

As for `Cn1cc(C(=O)Nc2cc(Cl)cc(NS(C)(=O)=O)c2)cc1-c1ccc(N2CC(F)C2)cn1` [Example 539], the IC50 in experiment [1] came to 0.0983 µM; in experiment [3] (NCI-H747, NCI-H747), 7.01 µM. For the same compound, the EC50 in experiment [2] (^+ SyBr assay was used) was 0.0162 µM.

For `CCc1cn2cc(C(=O)Nc3cc(Cl)cc(NS(C)(=O)=O)c3)ccc2n1` [Example 132], the IC50 in experiment [1] (CRC-MSI-H) is over 10 µM; in experiment [3] (NCI-H747, NCI-H747, CRC-MSS), over 10 µM. For the same compound, the EC50 in experiment [2] (SyBr assay (marked ^+)) was over 10 µM.

As to `CS(=O)(=O)Nc1cc(Cl)cc(NC(=O)c2cc(-c3ncccc3OCc3cnco3)cs2)c1` [Example 215], the IC50 was 0.118 µM in experiment [1] (CRC-MSI-H) and over 10 µM in experiment [3] (NCI-H747, NCI-H747, CRC-MSS). In addition, the EC50 in experiment [2] (SyBr assay (marked ^+)) worked out at 0.0237 µM.

Turning to `CS(=O)(=O)Nc1cc(Cl)cc(NC(=O)c2cc(-c3ccc(F)cn3)n(CC(F)F)c2)c1` [Example 286], the IC50 was 0.131 µM in experiment [1] (CRC-MSI-H) and over 10 µM in experiment [3] (NCI-H747, NCI-H747, CRC-MSS). Besides, the EC50 in experiment [2] (SyBr assay (marked ^+)) turned out to be 2.63 µM.

Values taken from patent publication US12162867B2, “Inhibitors of RNA helicase DHX9 and uses thereof” (ACCENT THERAPEUTICS, INC., priority 2022, dated 2024).
